# Data: patent US7381540B2, “Composition for measuring glucose having improved substrate specificity” (Toyo Boseki Kabushiki Kaisha, priority 2005, dated 2008)
# Legend:
# modified PQQGDH [1] = test: Substrate specificity using glucose assay system (ferricyanide reduction, absorbance 420 nm); format: biochemical; conditions: for activity with respect to maltose compared with the control (in words): substrate concentration of 4.8 mM, in some cases
# Method: D-glucose+ferricyanide ion+PQQGDH D-glucono-1,5-lactone+ferrocyanide ion
# Specificity to each substrate can be determined by changing D-glucose to other saccharides. The presence of the ferrocyanide ion produced by reduction of the ferricyanide ion was confirmed by measuring the decrease of absorbance at a wavelength of 420 nm by spectrophotometry.
# A. […]
# B. Potassium ferricyanide solution: 50 mM (0.165 g potassium ferricyanide (molecular weight: 329.25) dissolved in 10 ml of distilled water)
# C. PQQGDH solution: 31000 U/ml (approx. 128 mg PQQGDH (Toyobo: GLD-331) dissolved in 5 ml of distilled water)
# D. Substrate solution (D-glucose solution or maltose solution): 100 or 400 mM
# • 1. The following reaction mixture was prepared in a light shielding bottle, and stored on ice (prepared at use). 48.2 mL of each buffer solution (pH6.5) (A) • 4.0 mL of potassium ferricyanide solution (B) • 0.19 mL of (C) • 2. 2.65 ml of the reaction mixture and 0.3 ml of additive were placed in a test tube (plastic) and pre-warmed for 5 minutes at 37° C. • 3. 0.15 ml of substrate solution (D) were added and mixed gently. • 4. The reduction in the absorbance relative to water at 420 nm was recorded for 1 to 3 minutes with a spectrophotometer while maintaining at a temperature of 37° C., and the ΔOD per minute was calculated from the initial linear portion of the curve (ΔOD test). At the same time, the same procedure was carried out with the exception of adding distilled water instead of glucose solution followed by measurement of the blank (ΔOD blank).
# The above-mentioned procedure was carried out at each of the predetermined concentrations shown in Tables 1 to 3 using as additives succinic acid, adipic acid, suberic acid, pimeric acid, potassium chloride, ammonium chloride, diammonium hydrogen citrate, malonic acid, L-lysine, taurine, 3,3-dimethylglutaric acid, malic acid, glutaric acid, calcium glycerate, amino-n-butyric acid, sodium glycolate, sodium α-ketoglutarate, fumaric acid, glycerin, glutamic acid and serine. And the procedure was also carried out for those not containing additives to assess the effects of additives.
# Variation in absorbance per unit time was determined by calculating ΔOD/min(ΔOD test−ΔOD blank)
# To evaluate whether activity had declined with respect to sugars other than glucose, the ΔOD/min (a) with D-glucose as the substrate solution and the ΔOD/min (b) with the other sugar in place of D-glucose as the substrate solution were measured, and the relative value ((b)/(a)×100) was calculated given 100 as the measurement value with glucose as the substrate.
# In each of Tables 3 to 5, in the case the value of the ratio of measured values of maltose and glucose (maltose/glucose) relative to the control (control: no addition) is small, activity with respect to maltose during glucose measurement decreases.
# modified PQQGDH [2] = test: Maltose activity of glucose electrode loaded with modified PQQGDH (oxidation current, potassium ferricyanide mediator); format: biochemical, Acinetobacter baumannii strain NCIMB11517; conditions: for Maltose Activity (%): solute 50 mM, pH 5.5, glucose or maltose 4 mM, 0.1 M potassium ferricyanide, +0.35 V, 25° C.; for Maltose Activity of Glucose Electrode: 50 mM solvent, 1 mM calcium chloride, 0.1% Triton X-100
# Method: 0.5 g of carbon graphite were placed in a mortar followed by the addition of 0.3 ml of liquid paraffin and kneading with a pestle for 30 minutes to produce a carbon paste. The resulting carbon paste was spread onto a platinum electrode followed by the addition of 10 μl of the modified PQQGDH solution (2,000 U/ml) produced in Example 2 and air drying for 30 minutes at room temperature. A cut cellulose semi-permeable membrane (molecular weight: 8,000) was placed over the dried enzyme electrode and the semi-permeable membrane was immobilized with plastic O-rings. The glucose electrode produced in this manner was then used after preliminarily immersing in the cold reaction solvent for 30 minutes.
# The substances listed in Table 1 were used as solutes, and buffers were respectively prepared having a final concentration of 50 mM (pH 5.5). Each of the solvents contained an activator/stabilizer in the form of calcium chloride at 1 mM and surfactant in the form of 0.1% Triton X-100 in addition to the solute listed in Table 1. Potassium ferricyanide was dissolved in each of the produced solvents to a concentration of 0.1 M to prepare reaction solutions.
# 50 mM phosphoric acid or pimeric acid solution containing 1 mM calcium chloride and 0.1% Triton X-100 (consisting of three types having pH values of 5.0, 6.0 and 7.0, respectively) were prepared. Maltose activity of the glucose electrode was investigated for each according to the method of Example 5.
# modified PQQGDH [3] = test: Substrate specificity using glucose assay system (ferricyanide reduction, absorbance 420 nm); format: biochemical; conditions: potassium phosphate buffer pH 7.0
# [4] = glutaric acid buffer pH 7.0, reagent 0.1%, substrate 4.8 mM, control 0.86
# [5] = glutaric acid buffer pH 7.0, reagent 0.1%, substrate 19.2 mM, control 0.94
# [6] = glutaric acid buffer pH 7.0, reagent 1%, substrate 4.8 mM, control 0.86
# [7] = glutaric acid buffer pH 7.0, reagent 1%, substrate 19.2 mM, control 0.94
# [8] = phthalic acid buffer pH 7.0, reagent 0.5%, substrate 4.8 mM, control 0.72
# [9] = phthalic acid buffer pH 7.0, reagent 0.5%, substrate 19.2 mM, control 0.75
# [10] = phthalic acid buffer pH 7.0, reagent 1%, substrate 4.8 mM, control 0.72
# [11] = phthalic acid buffer pH 7.0, reagent 1%, substrate 19.2 mM, control 0.75
# [12] = phthalic acid buffer pH 7.0, reagent 2%, substrate 4.8 mM, control 0.72
# [13] = phthalic acid buffer pH 7.0, reagent 2%, substrate 19.2 mM, control 0.75
# [14] = potassium phosphate buffer pH 7.0, reagent 0.5%, substrate 19.2 mM, control 0.93
# [15] = potassium phosphate buffer pH 7.0, reagent 1%, substrate 19.2 mM, control 0.93
# [16] = reagent 0.5%, substrate 4.8 mM, control 0.85
# [17] = reagent 1%, substrate 4.8 mM, control 0.85
# [18] = reagent 2%, substrate 4.8 mM, control 0.85
# [19] = reagent 2%, substrate 19.2 mM, control 0.93
SMILES,Maltose/glucose ratio (modified PQQGDH [1]; [6]),Maltose/glucose ratio (modified PQQGDH [1]; [7]),Maltose Activity (%) (modified PQQGDH [2]),Maltose/glucose ratio (modified PQQGDH [1]; [8]),Maltose/glucose ratio (modified PQQGDH [1]; [9]),Maltose/glucose ratio (modified PQQGDH [1]; [10]),Maltose/glucose ratio (modified PQQGDH [1]; [11]),Maltose/glucose ratio (modified PQQGDH [1]; [12]),Maltose/glucose ratio (modified PQQGDH [1]; [13]),other results
N[C@H](CCC(=O)O)C(=O)O [D-glutamic acid],–,–,–,–,–,–,–,–,–,Maltose/glucose ratio (modified PQQGDH [1]; [4]): 0.73; Maltose/glucose ratio (modified PQQGDH [1]; [5]): 0.89
O=C([O-])CO.[Na+] [sodium glycolate],0.77,0.92,–,–,–,–,–,–,–,–
O=C(O)CCCC(=O)O [Glutaric acid],0.34,0.54,22.1,–,–,–,–,–,–,Maltose/glucose ratio (modified PQQGDH [1]; [4]): 0.65; Maltose/glucose ratio (modified PQQGDH [1]; [5]): 0.81
N.N.O=C(O)CC(O)(CC(=O)O)C(=O)O [Diammonium hydrogen citrate],0.59,0.82,–,0.79,0.55,0.80,0.70,0.89,0.63,Maltose/glucose ratio (modified PQQGDH [1]; [4]): 0.78; Maltose/glucose ratio (modified PQQGDH [1]; [5]): 0.90; Maltose/glucose ratio (modified PQQGDH [1]; [14]): 0.88; Maltose/glucose ratio (modified PQQGDH [1]; [15]): 0.76; activity with respect to maltose compared with the control (in words) (modified PQQGDH [1]): did not decrease; Maltose/glucose ratio (modified PQQGDH [3]; [16]): 0.64; Maltose/glucose ratio (modified PQQGDH [3]; [17]): 0.52; Maltose/glucose ratio (modified PQQGDH [3]; [18]): 0.36; Maltose/glucose ratio (modified PQQGDH [3]; [19]): 0.54
"CC(=O)O [Acetic acid, reference compound]",–,–,35.5,–,–,–,–,–,–,–
Cl.NCCCC[C@H](N)C(=O)O [L-lysine hydrochloride],0.65,0.87,–,0.62,0.64,0.61,0.58,0.59,0.50,Maltose/glucose ratio (modified PQQGDH [1]; [14]): 0.91; Maltose/glucose ratio (modified PQQGDH [1]; [15]): 0.93; Maltose/glucose ratio (modified PQQGDH [3]; [16]): 0.78; Maltose/glucose ratio (modified PQQGDH [3]; [17]): 0.71; Maltose/glucose ratio (modified PQQGDH [3]; [18]): 0.66; Maltose/glucose ratio (modified PQQGDH [3]; [19]): 0.85
CC[C@H](N)C(=O)O [L-2-amino-n-butyric acid],0.76,0.92,–,–,–,–,–,–,–,–
O=C(O)CCC(=O)C(=O)O [2-ketoglutaric acid],–,–,19.3,–,–,–,–,–,–,–
O=C(O)CC(=O)O [Malonic acid],0.68,0.84,23.2,0.74,0.58,0.77,0.57,0.82,0.63,activity with respect to maltose compared with the control (in words) (modified PQQGDH [1]): did not decrease
[Cl-].[K+] [Potassium chloride],–,–,–,0.66,0.71,0.67,0.64,0.60,0.60,–
"O=P(O)(O)O [Phosphoric acid, reference compound]",–,–,28.0,–,–,–,–,–,–,Maltose Activity of Glucose Electrode (modified PQQGDH [2]; pH 5.0): 23.7%; Maltose Activity of Glucose Electrode (modified PQQGDH [2]; pH 6.0): 36.8%; Maltose Activity of Glucose Electrode (modified PQQGDH [2]; pH 7.0): 50.8%
NCCS(=O)(=O)O [Taurine],0.75,0.81,–,0.71,0.72,0.66,0.68,0.62,0.68,–
N[C@@H](CO)C(=O)O [L-serine],0.73,0.87,–,–,–,–,–,–,–,–
O=C([O-])C(O)CO.O=C([O-])C(O)CO.[Ca+2] (racemic) [Calcium DL-glycerate],–,–,–,–,–,–,–,–,–,"Maltose/glucose ratio (modified PQQGDH [1]; glutaric acid buffer pH 7.0, reagent 0.33%, substrate 4.8 mM, control 0.86): 0.60; Maltose/glucose ratio (modified PQQGDH [1]; glutaric acid buffer pH 7.0, reagent 0.33%, substrate 19.2 mM, control 0.94): 0.82"
O=C(O)c1ccccc1C(=O)O [Phthalic acid],–,–,4.9,–,–,–,–,–,–,–
NCC(=O)O [Glycine],0.76,0.93,–,–,–,–,–,–,–,–
Cl.N [Ammonium chloride],0.56,0.71,–,0.60,0.67,0.57,0.59,0.52,0.52,Maltose/glucose ratio (modified PQQGDH [1]; [14]): 0.91; Maltose/glucose ratio (modified PQQGDH [1]; [15]): 0.84; Maltose/glucose ratio (modified PQQGDH [3]; [16]): 0.72; Maltose/glucose ratio (modified PQQGDH [3]; [17]): 0.58; Maltose/glucose ratio (modified PQQGDH [3]; [18]): 0.43; Maltose/glucose ratio (modified PQQGDH [3]; [19]): 0.70
"O=S(=O)(O)CCN1CCOCC1 [MES, reference compound]",–,–,29.6,–,–,–,–,–,–,–
O=C(O)CC(O)(CC(=O)O)C(=O)O [Citric acid],–,–,23.4,–,–,–,–,–,–,–
O=C(O)/C=C/C(=O)O [Fumaric acid],0.68,0.88,–,–,–,–,–,–,–,–
